Laboratory results reported in US10023592B2, “Bromodomain inhibitors” (Celgene Quanticel Research, Inc., priority 2013, dated 2018).

Legend:
[1] = system: Raji, human Burkitts lymphoma cells; test: Cell-MTS proliferation assay, Raji; assay type: cell-based; settings: 168 hr
Method: (§1) The Cell-MTS assay is a 7-day plate-based colorimetric assay which quantifies the amount of newly generated NADH in the presence or absence of test compound. The NADH level is used for the quantification of cancer cell proliferation.
(§2) Established cancer cell lines with a variety of driving mutations were obtained from American Type Culture Collection (ATCC) and routinely passaged according to ATCC protocols. For routine assay, these cells were seeded at densities which enabled ˜90% confluence after 7 days of culture. Raji, human Burkitts lymphoma cells, (cMYC) were seeded at 15,000 cells per 96-well. HL-60, human proleukemia cells, (NRAS, p16, p53, c-Myc amplified) were seeded at 5,000 cells per 96-well. NCI-H460, human non-small cell lung cancer cells, (KRAS, PIK3CA, STLK11, p16) were seeded at 3,000 cells per 96-well. 24 hr after plating, cells received an 11-point dilution of test compound with final concentration ranges from 100 μM to 2.0 nM. […] At the end of this incubation period, 80 μL of media is removed and 20 μL of CellTiter 96® AQueous Non-Radioactive Cell Proliferation Assay soln (Promega) was added. The cells were incubated until the OD490 was >0.6. IC50 values were calculated using the IDBS XLfit software package and include background subtracted OD490 values and normalization to DMSO controls. Cellular proliferation IC50 values were uploaded and archived using the Chem Biography Platform.

[2] = system: HL-60, human proleukemia cells; test: Cell-MTS proliferation assay, HL-60; assay type: cell-based; settings: Cell-MTS, 168 hr; class symbols A/B/C
Method: as §1, §2

[3] = biological target: BRD4(BD1) (Homo sapiens (Human), UniProt O60885); test: In vitro enzyme inhibition assay (BRD4 AlphaScreen); assay type: binding; settings: in vitro enzyme inhibition assay
How it was run: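 His-tagged BRD4 tested by AlphaScreen for binding of biotinylated H4K5/8/12/16-tetraacetyl peptide. After 20 min at room temperature, streptavidin donor and nickel chelate acceptor beads added (5 μg/mL final each). IC50 determined.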

[4] = Homo sapiens, Raji, Cell-MTS proliferation
[5] = Homo sapiens, Cell-MTS proliferation, Raji cells

SMILES	IC50 [3] [nM]	IC50 [1, 4] [nM]	IC50 [1, 5] [nM]	IC50 ([1]; Cell-MTS, class symbols A/B/C) [nM]	IC50 [2] [nM]
CCNS(=O)(=O)c1cccc(-c2cn(C)c(=O)c3ccc(F)cc23)c1 [Example 49, N-ethyl-3-(6-fluoro-2-methyl-1-oxoisoquinolin-4-yl) benzenesulfonamide]	–	–	–	500 to 5000	500 to 5000
Cn1cc(-c2nc(CS(C)(=O)=O)ncc2Oc2ccc(F)cc2F)c2ccccc2c1=O [Example 148, 4-[5-(2,4-difluorophenoxy)-2-(methylsulfonylmethyl)pyrimidin-4-yl]-2-methylisoquinolin-1-one]	< 500	> 5000	–	–	–
CCS(=O)(=O)c1ccc(O[C@H]2CC[C@H](O)CC2)c(-c2cn(C)c(=O)c3ccc(F)cc23)c1 [Example 188, 4-[5-ethylsulfonyl-2-(trans-4-hydroxycyclohexyl)oxyphenyl]-6-fluoro-2-methylisoquinolin-1-one]	< 500	< 500	–	–	–
CCS(=O)(=O)c1ccc(O[C@H]2CC[C@H](O)CC2)c(-c2cn(C)c(=O)c3cc(F)ccc23)c1 [Example 189, 4-[5-ethylsulfonyl-2-(trans-4-hydroxycyclohexyl)oxyphenyl]-7-fluoro-2-methylisoquinolin-1-one]	< 500	< 500	–	–	–
CCS(=O)(=O)c1ccc(OCC2CC2)c(-c2cc(OCC(F)(F)F)c(=O)n(C)c2)c1 [Example 288, 5-[2-(cyclopropylmethoxy)-5-ethylsulfonylphenyl]-1-methyl-3-(2,2,2-trifluoroethoxy)pyridin-2-one]	< 500	500 to 5000	–	–	–
[2H]C([2H])([2H])n1cc(-c2cc(S(=O)(=O)CC)ccc2OCC2CC2)c(C)cc1=O [Example 457, 5-[2-(cyclopropylmethoxy)-5-ethylsulfonylphenyl]-1-(^2H3)methyl-4-methylpyridin-2-one]	< 500	–	< 500	–	–
CCC1Cc2cc(S(C)(=O)=O)cc(-c3cn(C)c(=O)c4ccccc34)c2O1 (stereo not shown) [Example 494, 4-(2-ethyl-5-methylsulfonyl-2,3-dihydro-1-benzofuran-7-yl)-2-methylisoquinolin-1-one]	< 500	–	500 to 5000	–	–
CCS(=O)(=O)Nc1cc2c(c(-c3cc(C)c(=O)n(C)c3)c1)OC(C1CC1)C2 (stereo not shown) [Example 496, N-[2-cyclopropyl-7-(1,5-dimethyl-6-oxopyridin-3-yl)-2,3-dihydro-1-benzofuran-5-yl]ethanesulfonamide]	< 500	–	< 500	–	–

Further lines, with some results ahead:

IC50 [3] [nM]	IC50 [1, 4] [nM]	IC50 [1, 5] [nM]	SMILES	IC50 ([1]; Cell-MTS, class symbols A/B/C) [nM]	IC50 [2] [nM]
< 500	–	< 500	Cn1cc(-c2cc(S(C)(=O)=O)ccc2OCC2CC2)c2c(c1=O)CCC2 [Example 504, 4-[2-(cyclopropylmethoxy)-5-methylsulfonylphenyl]-2-methyl-6,7-dihydro-5H-cyclopenta[c]pyridin-1-one]	–	–
< 500	–	< 500	CCS(=O)(=O)Nc1ncc(Oc2ccc(F)cc2F)c(-c2cc(C)c(=O)n(C(C)C)c2)n1 [Example 509, N-[5-(2,4-difluorophenoxy)-4-(5-methyl-6-oxo-1-propan-2-ylpyridin-3-yl)pyrimidin-2-yl]ethanesulfonamide]	–	–
< 500	–	< 500	CCCCc1cnc(NS(=O)(=O)CC)nc1-c1cc(C)c(=O)n(C(C)C)c1 [Example 511, N-[5-butyl-4-(5-methyl-6-oxo-1-propan-2-ylpyridin-3-yl)pyrimidin-2-yl] ethanesulfonamide]	–	–
< 500	–	< 500	CCCCc1cnc(NS(=O)(=O)CC)nc1-c1cc(C(C)C)c(=O)n(C)c1 [Example 512, N-[5-butyl-4-(1-methyl-6-oxo-5-propan-2-ylpyridin-3-yl)pyrimidin-2-yl] ethanesulfonamide]	–	–
< 500	–	–	CCS(=O)(=O)Nc1ncc(Oc2ccc(F)cc2F)c(-c2cc(C(C)C)c(=O)n(C)c2)n1 [Example 514, N-[5-(2,4-difluorophenoxy)-4-(1-methyl-6-oxo-5-propan-2-ylpyridin-3-yl)pyrimidin-2-yl]ethanesulfonamide]	–	–
